Refractive index data for nine compounds are collected here from the NIST ThermoML archive (doi:10.1007/s10765-005-8096-3).

The nature of this data set: refractive index (Na D-line) (dimensionless). Particulars: 298.15 K; 101.33 kPa; Liquid; Standard Abbe refractometry.

Numbers after ± are expanded uncertainties.

For the compound `CC(C)c1ccccc1` [isopropylbenzene], the refractive index stood at 1.48869 ± 0.00075. The figure for `CC(C)Cc1ccccc1` [(2-methylpropyl)benzene] is 1.48397 ± 0.00075. With `CC(C)(C)c1ccccc1` [(1,1-dimethylethyl)benzene], the refractive index was found to be 1.49003 ± 0.00075. Regarding `Cc1cc(C)cc(C)c1` [1,3,5-trimethylbenzene], the refractive index amounted to 1.49682 ± 0.00075.

With `Cc1ccccc1` [toluene], the refractive index stood at 1.49399 ± 0.00075. The figure for `CCCCc1ccccc1` [butylbenzene] is 1.48735 ± 0.00075; for `CCc1ccccc1` [ethylbenzene] it is 1.49316 ± 0.00075; for `Cc1ccc(C)cc1` [1,4-dimethylbenzene] it is 1.49298 ± 0.00075. Regarding `CCCCOC(C)=O` [butyl ethanoate], the refractive index is 1.39176 ± 0.00075.

For orientation: refractive index means the speed of light in vacuum divided by its phase velocity in the sample.
